Measurements taken from patent publication US20020026053A1, “Novel 3-(substituted) -2- indolinones compounds and use thereof as inhibitors of protein kinase activity” (priority 1997, published 2002).

Biological target: T1, Met receptor (EGFR/Met chimeric cells, EMR) (Homo sapiens, UniProt P08581)
T1 construct: expressed in transfected cells; the other entry of the earlier key: EGFR (P00533, Epidermal growth factor receptor)
Experiment: Met Autophosphorylation Assay
Type: biochemical
Experimental: Met Autophosphorylation Assay
This assay determines Met tyrosine kinase activity by analyzing Met protein tyrosine kinase levels on the Met receptor.
a. HNTG (5× stock solution): Dissolve 23.83 g HEPES and 43.83 g NaCl in about 350 ml dH2O. Adjust pH to 7.2 with HCl or NaOH, add 500 ml glycerol and 10 ml Triton X-100, mix, add dH2O to 1 L total volume. To make 1 L of 1× working solution add 200 ml 5× stock solution to 800 ml dH2O, check and adjust pH as necessary, store at 4° C.
b. PBS (Dulbecco's Phosphate-Buffered Saline), Gibco Cat. # 450-1300EB (1× solution).
c. Blocking Buffer: in 500 ml dH2O place 100 g BSA, 12.1 g Tris-pH7.5, 58.44 g NaCl and 10 ml Tween-20, dilute to 1 L total volume.
d. Kinase Buffer: To 500 ml dH2O add 12.1 g TRIS (pH 7.2), 58.4 g NaCl, 40.7 g MgCl2 and 1.9 g EGTA; bring to 1 L total volume with dH2O.
e. PMSF (Phenylmethylsulfonyl fluoride), Sigma Cat. # P-7626, to 435.5 mg, add 100% ethanol to 25 ml total volume, vortex.
f. ATP (Bacterial Source), Sigma Cat. # A-7699, store powder at −20° C.; to make up solution for use, dissolve 3.31 mg in 1 ml dH2O.
g. RC-20H HRPO Conjugated Anti-Phosphotyrosine, Transduction Laboratories Cat. # E120H.
h. Pierce 1-Step Turbo™ B-ELISA (3,3′,5,5′-tetramethylbenzidine, Pierce Cat. # 34022.
i. H2SO4, add 1 ml conc.(18 N) to 35 ml dH2O.
j. TRIS HCL, Fischer Cat. # BP152-5; to 121.14 g of material, add 600 ml MilliQ H2O, adjust pH to 7.5 (or 7.2) with HCl, bring volume to 1 L with MilliQ H2O.
k. NaCl, Fischer Cat. # S271-10, make up 5M solution.
m. Na3VO4, Fischer Cat. # S454-50, to 1.8 g material add 80 ml MilliQ H2O, adjust pH to 10.0 with HCl or NaOH, boil in microwave, cool, check pH, repeat procedure until pH stable at 10.0, add MilliQ H2O to 100 ml total volume, make 1 ml aliquots and store at −80° C.
n. MgCl2, Fischer Cat. # M33-500, make up 1M solution.
o. HEPES, Fischer Cat. # BP310-500, to 200 ml MilliQ H2O, add 59.6 g material, adjust pH to 7.5, bring volume to 250 ml total, sterile filter.
p. Albumin, Bovine (BSA), Sigma Cat. # A-4503, to 30 grams material add sterile distilled water to make total volume of 300 ml, store at 4° C.
q. TBST Buffer: to approx. 900 ml dH2O in a 1 L graduated cylinder add 6.057 g TRIS and 8.766 g NaCl, when dissolved, adjust pH to 7.2 with HCl, add 1.0 ml Triton X-100 and bring to 1 L total volume with dH2O.
r. Goat Affinity purified antibody Rabbit IgG (whole molecule), Cappel Cat. # 55641.
s. Anti h-Met (C-28) rabbit polyclonal IgG antibody, Santa Cruz Chemical Cat. # SC-161.
t. Transiently Transfected EGFR/Met chimeric cells (EMR) (Komada, et al., Oncogene, 8:2381-2390 (1993).
u. Sodium Carbonate Buffer, ([…], Fischer Cat. # S495) to 10.6 g material add 800 ml MilliQ H2O, when dissolved adjust pH to 9.6 with NaOH, bring up to 1 L total volume with MilliQ H2O, filter, store at 4° C.
All of the following steps are conducted at room temperature unless it is specifically indicated otherwise. All ELISA plate washing is by rinsing 4× with TBST.
This procedure can be performed the night before or immediately prior to the start of receptor capture.
1. Quick thaw lysates in a 37° C. waterbath with a swirling motion until the last crystals disappear.
2. Lyse cell pellet with 1× HNTG containing 1 mM PMSF. Use 3 ml of HNTG per 15 cm dish of cells. Add ½ the calculated HNTG volume, vortex the tube for 1 min., add the remaining amount of HNTG, vortex for another min.
3. Balance tubes, centrifuge at 10,000× g for 10 min at 4° C.
4. Pool supernatants, remove an aliquot for protein determination.
5. Quick freeze pooled sample in dry ice/ethanol bath. This step is performed regardless of whether lysate will be stored overnight or used immediately following protein determination.
6. Perform protein determination using standard bicinchoninic acid (BCA) method (BCA Assay Reagent Kit from Pierce Chemical Cat. # 23225).
1. Coat Corning 96 well ELISA plates with 5 μg per well Goat anti-Rabbit antibody in Carbonate Buffer for a total well volume of 50 μl. Store overnight at 4° C. […]

T1 sequence (P08581 with tags, fused parts or gaps): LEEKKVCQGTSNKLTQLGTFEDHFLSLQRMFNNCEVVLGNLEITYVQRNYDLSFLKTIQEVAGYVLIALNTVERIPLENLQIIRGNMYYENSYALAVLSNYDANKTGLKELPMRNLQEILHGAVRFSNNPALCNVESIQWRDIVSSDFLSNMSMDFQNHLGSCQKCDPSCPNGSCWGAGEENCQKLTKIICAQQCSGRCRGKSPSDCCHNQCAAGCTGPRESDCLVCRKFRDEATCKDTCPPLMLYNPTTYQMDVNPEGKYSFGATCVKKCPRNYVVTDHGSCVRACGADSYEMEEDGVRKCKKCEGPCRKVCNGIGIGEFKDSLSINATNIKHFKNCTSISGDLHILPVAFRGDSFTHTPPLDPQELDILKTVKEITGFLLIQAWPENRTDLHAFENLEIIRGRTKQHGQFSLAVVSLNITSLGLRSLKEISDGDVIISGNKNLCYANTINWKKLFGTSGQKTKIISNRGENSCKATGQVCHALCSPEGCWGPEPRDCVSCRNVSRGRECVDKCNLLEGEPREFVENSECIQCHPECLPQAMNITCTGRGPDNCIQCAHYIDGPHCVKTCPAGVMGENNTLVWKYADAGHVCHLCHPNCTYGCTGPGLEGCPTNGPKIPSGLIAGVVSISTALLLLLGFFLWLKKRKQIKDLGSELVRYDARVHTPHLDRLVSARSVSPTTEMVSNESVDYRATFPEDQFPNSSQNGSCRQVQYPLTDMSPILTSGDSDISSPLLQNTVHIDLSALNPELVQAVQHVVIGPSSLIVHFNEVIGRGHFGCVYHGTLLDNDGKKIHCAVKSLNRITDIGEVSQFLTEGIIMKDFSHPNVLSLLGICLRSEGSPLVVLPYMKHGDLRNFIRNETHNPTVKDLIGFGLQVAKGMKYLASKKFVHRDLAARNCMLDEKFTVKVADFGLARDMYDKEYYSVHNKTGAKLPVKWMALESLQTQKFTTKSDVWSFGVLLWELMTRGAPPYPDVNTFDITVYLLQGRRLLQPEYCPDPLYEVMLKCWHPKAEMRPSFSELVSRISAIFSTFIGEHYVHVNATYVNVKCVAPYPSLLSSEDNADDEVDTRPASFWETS

SMILES | Met Kinase % Inhibition (P.130)
O=C1Nc2ccc(I)cc2C1=Cc1cc(Cl)cc(Cl)c1O [10734/B03] | 90.1%
CNS(=O)(=O)c1ccc2c(c1)C(=Cc1cc(Cl)cc(Cl)c1O)C(=O)N2 [10734/D03] | 78.6%
Cc1c(Br)ccc2c1C(=Cc1cc(Cl)cc(Cl)c1O)C(=O)N2 [10734/C03] | 88.2%
Cc1c(Br)ccc2c1C(=Cc1cc(Br)cc(Br)c1O)C(=O)N2 [10734/C07] | 96.8%
O=C1Nc2ccc(S(=O)(=O)Nc3ccc(C(F)(F)F)cc3)cc2C1=Cc1cc(Br)cc(Br)c1O [10734/E07] | 100.8%
CNS(=O)(=O)c1ccc2c(c1)C(=Cc1ccc(Br)s1)C(=O)N2 [10734/D11] | 33.9%
CC(C)(C)c1ccc(C=C2C(=O)Nc3c(Br)cc(Br)cc32)cc1 [10734/A10] | 55.4%
O=C1Nc2ccc(I)cc2C1=Cc1ccc([N+](=O)[O-])cc1 [10734/B06] | 91.2%
COc1cc(Br)c(O)c(C=C2C(=O)Nc3c(Br)cc(Br)c(C)c32)c1 [10718/H03] | 90.8%
CCN(CC)c1ccc(C=C2C(=O)Nc3ccc(CCCl)cc32)c(O)c1 [10734/G05] | 57.7%
O=C1Nc2ccc(S(=O)(=O)N3CCOCC3)cc2C1=Cc1cc(Br)cc(Br)c1O [10734/F07] | 95.7%
CC(C)(C)c1ccc(C=C2C(=O)Nc3ccc(CCCl)cc32)cc1 [10734/G10] | 19.3%
O=C1Nc2ccc(S(=O)(=O)Nc3ccc(C(F)(F)F)cc3)cc2C1=Cc1ccc(O)c(Br)c1 [10734/E09] | 96.2%
CCOc1cccc(C=C2C(=O)Nc3ccc(S(=O)(=O)N4CCOCC4)cc32)c1O [10734/F02] | 55.0%
O=C1Nc2ccc(S(=O)(=O)N3CCOCC3)cc2C1=Cc1cccc(F)c1O [10734/F08] | 66.3%
CC(C)(C)c1ccc(C=C2C(=O)Nc3ccc(S(=O)(=O)N4CCOCC4)cc32)cc1 [10734/F10] | 44.8%
CCN(CC)c1ccc(C=C2C(=O)Nc3ccc(S(=O)(=O)N4CCOCC4)cc32)c(O)c1 [10734/F05] | 73.8%
O=C1Nc2ccc(S(=O)(=O)N3CCOCC3)cc2C1=Cc1ccc([N+](=O)[O-])cc1 [10734/F06] | 64.2%
Cc1c(Br)cc(Br)c2c1C(=Cc1ccc(Cl)c([N+](=O)[O-])c1)C(=O)N2 [10718/H08] | 14.4%
O=C1Nc2ccc(S(=O)(=O)Nc3ccc(C(F)(F)F)cc3)cc2C1=Cc1ccc([N+](=O)[O-])cc1 [10734/E06] | 50.6%
O=C1Nc2ccc(I)cc2C1=Cc1cccc(F)c1O [10734/B08] | 56.1%
O=C1Nc2ccc(S(=O)(=O)N3CCOCC3)cc2C1=Cc1cc(Cl)cc(Cl)c1O [10734/F03] | 86.8%
O=C1Nc2c(Br)cc(Br)cc2C1=Cc1ccc(O)c(Br)c1 [10734/A09] | 88.4%
Cc1c(Br)ccc2c1C(=Cc1cccc(F)c1O)C(=O)N2 [10734/C08] | 93.2%
O=C1Nc2ccc(I)cc2C1=Cc1ccc(O)c(Br)c1 [10734/B09] | 94.3%
CCOC(=O)c1c(C)[nH]c(C=C2C(=O)Nc3c(Br)cc(Br)c(C)c32)c1C [10718/H02] | 31.5%

SMILES | Met Kinase % Inhibition (P.130)
Cc1c(Br)cc(Br)c2c1C(=Cc1ccc3ccccc3c1O)C(=O)N2 [10718/H04] | 84.3%
O=C1Nc2ccc(I)cc2C1=Cc1cc(Cl)ccc1O [10734/B04] | 88.4%
Cc1c(Br)ccc2c1C(=Cc1ccc(Br)s1)C(=O)N2 [10734/C11] | 23.9%
CCN(CC)c1ccc(C=C2C(=O)Nc3c(Br)cc(Br)cc32)c(O)c1 [10734/A05] | 69.9%
Cc1c(Br)ccc2c1C(=Cc1ccc([N+](=O)[O-])cc1)C(=O)N2 [10734/C06] | 48.3%
O=C1Nc2c(Br)cc(Br)cc2C1=Cc1cc(Cl)cc(Cl)c1O [10734/A03] | 87.8%
O=C1Nc2ccc(CCCl)cc2C1=Cc1cccc(F)c1O [10734/G08] | 82.2%
O=C1Nc2ccc(S(=O)(=O)Nc3ccc(C(F)(F)F)cc3)cc2C1=Cc1cccc(F)c1O [10734/E08] | 89.1%
CCOc1cccc(C=C2C(=O)Nc3c(Br)cc(Br)c(C)c32)c1O [10734/H02] | 48.3%
O=C1Nc2ccc(I)cc2C1=Cc1cc(Br)cc(Br)c1O [10734/B07] | 93.2%
CCOC(=O)c1cc(C=C2C(=O)Nc3c(Br)cc(Br)c(C)c32)oc1C [10718/H06] | 32.2%
O=C1Nc2c(Br)cc(Br)cc2C1=Cc1cc(Cl)ccc1O [10734/A04] | 68.0%
CCN(CC)c1ccc(C=C2C(=O)Nc3ccc(Br)c(C)c32)c(O)c1 [10734/C05] | 52.7%
O=C1Nc2ccc(I)cc2C1=Cc1ccc(Br)s1 [10734/B11] | 83.6%
O=C1Nc2ccc(S(=O)(=O)Nc3ccc(C(F)(F)F)cc3)cc2C1=Cc1cc(Cl)cc(Cl)c1O [10734/E03] | 99.3%
O=C1Nc2ccc(CCCl)cc2C1=Cc1cc(Cl)ccc1O [10734/G04] | 72.1%
CNS(=O)(=O)c1ccc2c(c1)C(=Cc1cc(Br)cc(Br)c1O)C(=O)N2 [10734/D07] | 92.0%
O=C1Nc2c(Br)cc(Br)cc2C1=Cc1cccc(F)c1O [10734/A08] | 71.5%
O=C1Nc2c(Br)cc(Br)cc2C1=Cc1ccc(Br)s1 [10734/A11] | 51.9%
CCOc1cccc(C=C2C(=O)Nc3ccc(I)cc32)c1O [10734/B02] | 61.9%
CCOc1cccc(C=C2C(=O)Nc3ccc(Br)c(C)c32)c1O [10734/C02] | 78.6%
CCN(CC)c1ccc(C=C2C(=O)Nc3ccc(S(=O)(=O)Nc4ccc(C(F)(F)F)cc4)cc32)c(O)c1 [10734/E05] | 63.6%
CNS(=O)(=O)c1ccc2c(c1)C(=Cc1cc(Cl)ccc1O)C(=O)N2 [10734/D04] | 46.9%
Cc1c(Br)cc(Br)c2c1C(=Cc1cc(Cl)cc(Cl)c1O)C(=O)N2 [10734/H03] | 90.3%
O=C1Nc2ccc(S(=O)(=O)Nc3ccc(C(F)(F)F)cc3)cc2C1=Cc1ccc(Br)s1 [10734/E11] | 67.1%
O=C1Nc2ccc(CCCl)cc2C1=Cc1cc(Br)cc(Br)c1O [10734/G07] | 96.6%
